The kinase profiling compilation of Christmann-Franck et al. (2016)

What was measured:
Test in all cases: KINOMEscan competition binding
Details in all cases: compound 10.0 µM
ACVR1B (human) = ACVR1B (human) (UniProt P36896)
ADCK4 (human) = ADCK4 (human) (UniProt Q96D53)
AKT2 (human) = AKT2 (human) (UniProt P31751)
BMP2K (human) = BMP2K (human) (UniProt Q9NSY1)
BRSK2 (human) = BRSK2 (human) (UniProt Q8IWQ3)
BTK (human) = BTK (human) (UniProt Q06187)
CaMK1 (human) = CaMK1 (human) (UniProt Q14012)
DAPK2 (human) = DAPK2 (human) (UniProt Q9UIK4)
DSTYK (human) = DSTYK (human) (UniProt Q6XUX3)
DYRK1A (human) = DYRK1A (human) (UniProt Q13627)
EIF2AK2 (human) = EIF2AK2 (human) (UniProt P19525)
EPHB6 (human) = EPHB6 (human) (UniProt O15197)
FRK (human) = FRK (human) (UniProt P42685)
Chain of FRK (human) (P42685 whole entry, looked up): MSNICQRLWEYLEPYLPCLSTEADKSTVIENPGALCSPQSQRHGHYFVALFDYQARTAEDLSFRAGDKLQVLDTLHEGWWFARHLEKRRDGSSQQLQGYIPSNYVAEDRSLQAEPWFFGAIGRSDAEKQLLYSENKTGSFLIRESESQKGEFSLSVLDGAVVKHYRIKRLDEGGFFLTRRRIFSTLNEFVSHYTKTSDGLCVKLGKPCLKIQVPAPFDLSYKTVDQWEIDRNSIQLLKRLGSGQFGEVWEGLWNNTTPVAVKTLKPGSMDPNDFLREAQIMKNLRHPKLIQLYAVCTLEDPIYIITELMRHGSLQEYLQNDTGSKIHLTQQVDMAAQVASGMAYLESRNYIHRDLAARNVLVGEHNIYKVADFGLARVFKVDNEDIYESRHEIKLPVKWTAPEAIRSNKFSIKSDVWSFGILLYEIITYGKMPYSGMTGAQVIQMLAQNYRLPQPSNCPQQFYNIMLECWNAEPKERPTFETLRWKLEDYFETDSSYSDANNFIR

FYN (human) = FYN (human) (UniProt P06241)
HIPK1 (human) = HIPK1 (human) (UniProt Q86Z02)
[1] = molecular target: JAK2 JH1 catalytic (human) (UniProt O60674)
[2] = molecular target: JAK3 JH1 catalytic (human) (UniProt P52333)
Chain of JAK3 JH1 catalytic (human) (P52333 whole entry, looked up): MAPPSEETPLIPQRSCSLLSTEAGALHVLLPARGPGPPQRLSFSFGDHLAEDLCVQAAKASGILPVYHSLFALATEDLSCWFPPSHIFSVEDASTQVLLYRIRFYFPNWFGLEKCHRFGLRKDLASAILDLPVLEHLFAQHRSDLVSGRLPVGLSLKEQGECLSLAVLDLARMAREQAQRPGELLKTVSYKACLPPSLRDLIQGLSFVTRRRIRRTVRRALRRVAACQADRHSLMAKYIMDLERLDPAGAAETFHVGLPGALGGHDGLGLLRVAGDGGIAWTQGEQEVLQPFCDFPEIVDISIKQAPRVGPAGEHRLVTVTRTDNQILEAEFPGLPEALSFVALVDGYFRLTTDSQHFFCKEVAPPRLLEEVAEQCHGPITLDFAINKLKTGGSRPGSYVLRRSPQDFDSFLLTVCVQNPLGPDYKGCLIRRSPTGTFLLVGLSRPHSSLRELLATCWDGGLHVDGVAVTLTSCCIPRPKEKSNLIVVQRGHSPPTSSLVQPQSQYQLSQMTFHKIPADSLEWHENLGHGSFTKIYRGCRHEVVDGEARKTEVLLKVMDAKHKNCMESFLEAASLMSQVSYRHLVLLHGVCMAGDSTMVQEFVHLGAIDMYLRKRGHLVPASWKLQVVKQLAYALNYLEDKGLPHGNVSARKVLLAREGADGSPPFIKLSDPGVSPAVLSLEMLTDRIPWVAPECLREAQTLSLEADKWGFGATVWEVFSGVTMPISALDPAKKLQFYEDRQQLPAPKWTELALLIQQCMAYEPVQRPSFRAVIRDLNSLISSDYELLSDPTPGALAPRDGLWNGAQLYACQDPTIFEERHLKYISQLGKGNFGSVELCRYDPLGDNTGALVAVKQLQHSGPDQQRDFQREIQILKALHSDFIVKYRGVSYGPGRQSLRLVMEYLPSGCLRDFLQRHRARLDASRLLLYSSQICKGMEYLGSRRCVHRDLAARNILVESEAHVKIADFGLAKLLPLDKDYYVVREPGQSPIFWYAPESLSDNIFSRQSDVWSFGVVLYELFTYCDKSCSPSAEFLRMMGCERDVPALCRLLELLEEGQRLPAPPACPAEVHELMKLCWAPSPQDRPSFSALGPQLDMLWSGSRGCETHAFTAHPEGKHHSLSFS

MAP3K7 (human) = MAP3K7 (human) (UniProt O43318)
MAPK14 (human) = MAPK14 (human) (UniProt Q16539)
MAPKAPK2 (human) = MAPKAPK2 (human) (UniProt P49137)
Chain of MAPKAPK2 (human) (P49137 whole entry, looked up): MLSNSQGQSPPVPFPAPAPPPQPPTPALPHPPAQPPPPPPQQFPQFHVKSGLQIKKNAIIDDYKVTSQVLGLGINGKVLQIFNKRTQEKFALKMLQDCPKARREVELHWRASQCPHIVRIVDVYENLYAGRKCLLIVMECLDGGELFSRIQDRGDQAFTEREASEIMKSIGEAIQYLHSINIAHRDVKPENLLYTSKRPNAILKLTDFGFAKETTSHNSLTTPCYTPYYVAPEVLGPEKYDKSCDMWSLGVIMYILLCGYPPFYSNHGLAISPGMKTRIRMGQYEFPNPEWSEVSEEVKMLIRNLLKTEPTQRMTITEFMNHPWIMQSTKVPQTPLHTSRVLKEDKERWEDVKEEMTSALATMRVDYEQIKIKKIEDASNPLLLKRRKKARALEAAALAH

MYLK (human) = MYLK (human) (UniProt Q15746)
NEK11 (human) = NEK11 (human) (UniProt Q8NG66)
NEK3 (human) = NEK3 (human) (UniProt P51956)
NIM1 (human) = NIM1 (human) (UniProt Q8IY84)
PAK7 (human) = PAK7 (human) (UniProt Q9P286)
PIK3CA (human) = PIK3CA (human) (UniProt P42336)
Chain of PIK3CA (human) (P42336 whole entry, looked up): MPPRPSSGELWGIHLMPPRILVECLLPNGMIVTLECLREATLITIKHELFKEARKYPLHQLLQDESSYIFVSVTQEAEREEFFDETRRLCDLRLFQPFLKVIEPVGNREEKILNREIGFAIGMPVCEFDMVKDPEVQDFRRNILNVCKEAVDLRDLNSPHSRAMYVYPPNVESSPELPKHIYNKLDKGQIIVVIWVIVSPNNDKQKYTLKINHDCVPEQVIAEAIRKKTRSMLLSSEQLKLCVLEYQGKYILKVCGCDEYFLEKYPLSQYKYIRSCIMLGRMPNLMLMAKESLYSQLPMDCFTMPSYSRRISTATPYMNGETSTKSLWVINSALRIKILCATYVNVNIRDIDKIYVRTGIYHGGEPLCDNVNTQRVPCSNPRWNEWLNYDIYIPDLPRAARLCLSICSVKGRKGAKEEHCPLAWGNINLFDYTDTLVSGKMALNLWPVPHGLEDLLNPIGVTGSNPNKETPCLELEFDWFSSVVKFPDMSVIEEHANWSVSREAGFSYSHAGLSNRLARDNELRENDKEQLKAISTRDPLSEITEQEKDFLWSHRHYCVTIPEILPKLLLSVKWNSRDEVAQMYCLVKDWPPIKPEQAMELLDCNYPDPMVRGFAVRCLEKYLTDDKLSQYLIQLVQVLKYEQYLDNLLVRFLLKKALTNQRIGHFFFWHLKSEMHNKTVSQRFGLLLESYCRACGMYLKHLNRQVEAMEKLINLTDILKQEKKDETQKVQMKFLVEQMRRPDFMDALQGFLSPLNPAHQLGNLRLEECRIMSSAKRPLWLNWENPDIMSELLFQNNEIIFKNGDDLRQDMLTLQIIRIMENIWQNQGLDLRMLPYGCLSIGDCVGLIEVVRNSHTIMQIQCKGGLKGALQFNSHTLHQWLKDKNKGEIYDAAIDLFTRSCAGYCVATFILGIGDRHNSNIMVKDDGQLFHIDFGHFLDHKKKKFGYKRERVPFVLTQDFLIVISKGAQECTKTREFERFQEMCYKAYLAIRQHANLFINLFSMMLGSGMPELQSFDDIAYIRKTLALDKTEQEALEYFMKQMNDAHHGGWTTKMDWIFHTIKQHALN

[3] = test system: PIK3CA (human), P42336 [H1047Y]
Chain of PIK3CA (human), P42336 [H1047Y] (P42336 whole entry H1047Y, looked up): as the sequence (P42336 whole entry, looked up) above, with H1047Y counted along it

PIP5K1A (human) = PIP5K1A (human) (UniProt Q99755)
PKN2 (human) = PKN2 (human) (UniProt Q16513)
[4] = test system: RET (human), P07949 [V804M]
RIPK1 (human) = RIPK1 (human) (UniProt Q13546)
Chain of RIPK1 (human) (Q13546 whole entry, looked up): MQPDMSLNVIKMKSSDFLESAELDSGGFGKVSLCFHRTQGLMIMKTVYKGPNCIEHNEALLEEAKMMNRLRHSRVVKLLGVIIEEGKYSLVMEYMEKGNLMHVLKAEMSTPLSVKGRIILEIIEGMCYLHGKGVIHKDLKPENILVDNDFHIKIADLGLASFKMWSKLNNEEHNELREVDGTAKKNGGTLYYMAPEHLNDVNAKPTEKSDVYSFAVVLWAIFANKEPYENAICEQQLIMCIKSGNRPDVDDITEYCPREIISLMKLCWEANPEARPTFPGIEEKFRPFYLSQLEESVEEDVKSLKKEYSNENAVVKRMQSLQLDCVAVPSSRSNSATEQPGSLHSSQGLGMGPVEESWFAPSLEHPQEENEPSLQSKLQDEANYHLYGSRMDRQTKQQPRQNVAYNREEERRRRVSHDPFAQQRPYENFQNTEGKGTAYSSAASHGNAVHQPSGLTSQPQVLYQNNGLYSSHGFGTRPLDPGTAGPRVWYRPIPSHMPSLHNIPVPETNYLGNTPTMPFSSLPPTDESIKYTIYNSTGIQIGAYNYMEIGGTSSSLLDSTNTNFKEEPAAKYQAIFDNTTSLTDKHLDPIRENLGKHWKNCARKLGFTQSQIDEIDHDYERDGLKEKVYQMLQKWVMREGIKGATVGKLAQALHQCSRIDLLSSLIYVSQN

ROCK1 (human) = ROCK1 (human) (UniProt Q13464)
RPS6KA1 KD1 (human) = RPS6KA1 KD1 (human) (UniProt Q15418)
RPS6KB1 (human) = RPS6KB1 (human) (UniProt P23443)
SIK2 (human) = SIK2 (human) (UniProt Q9H0K1)
Chain of SIK2 (human) (Q9H0K1 whole entry, looked up): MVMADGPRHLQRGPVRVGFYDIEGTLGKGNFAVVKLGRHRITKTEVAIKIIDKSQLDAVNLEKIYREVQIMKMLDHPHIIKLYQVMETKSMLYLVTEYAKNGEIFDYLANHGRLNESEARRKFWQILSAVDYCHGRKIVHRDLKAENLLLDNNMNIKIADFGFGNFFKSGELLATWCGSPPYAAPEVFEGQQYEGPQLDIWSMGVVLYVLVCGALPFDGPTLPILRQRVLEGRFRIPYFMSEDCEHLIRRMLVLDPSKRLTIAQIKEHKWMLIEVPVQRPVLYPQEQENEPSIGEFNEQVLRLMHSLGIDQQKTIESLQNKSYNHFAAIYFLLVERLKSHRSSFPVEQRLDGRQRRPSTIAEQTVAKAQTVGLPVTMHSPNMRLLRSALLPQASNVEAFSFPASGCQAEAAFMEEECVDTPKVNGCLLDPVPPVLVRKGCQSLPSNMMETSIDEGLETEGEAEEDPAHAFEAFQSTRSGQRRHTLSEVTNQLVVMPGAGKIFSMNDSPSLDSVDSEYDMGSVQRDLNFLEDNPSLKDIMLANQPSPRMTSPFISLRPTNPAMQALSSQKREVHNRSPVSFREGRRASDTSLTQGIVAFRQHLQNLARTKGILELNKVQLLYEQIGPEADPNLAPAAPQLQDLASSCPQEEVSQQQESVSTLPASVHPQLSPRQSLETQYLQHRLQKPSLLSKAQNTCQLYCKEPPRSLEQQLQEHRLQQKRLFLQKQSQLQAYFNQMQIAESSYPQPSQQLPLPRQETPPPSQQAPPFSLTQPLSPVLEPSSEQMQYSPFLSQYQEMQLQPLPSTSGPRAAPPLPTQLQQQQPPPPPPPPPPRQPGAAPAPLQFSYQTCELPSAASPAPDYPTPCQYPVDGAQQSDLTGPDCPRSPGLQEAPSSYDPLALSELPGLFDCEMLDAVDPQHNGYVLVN

SRPK3 (human) = SRPK3 (human) (UniProt Q9UPE1)
STK16 (human) = STK16 (human) (UniProt O75716)
Chain of STK16 (human) (O75716 whole entry, looked up): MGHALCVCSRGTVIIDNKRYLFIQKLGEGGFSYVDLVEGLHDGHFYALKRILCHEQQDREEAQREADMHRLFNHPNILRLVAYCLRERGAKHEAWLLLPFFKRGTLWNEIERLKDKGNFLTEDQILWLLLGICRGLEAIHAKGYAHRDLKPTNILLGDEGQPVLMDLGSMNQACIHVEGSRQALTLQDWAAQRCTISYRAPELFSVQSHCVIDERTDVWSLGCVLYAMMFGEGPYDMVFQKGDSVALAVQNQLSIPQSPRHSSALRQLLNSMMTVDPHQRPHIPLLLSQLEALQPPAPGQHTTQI

STK39 (human) = STK39 (human) (UniProt Q9UEW8)
TNIK (human) = TNIK (human) (UniProt Q9UKE5)
[5] = molecular target: TYK2 JH1 catalytic (human) (UniProt P29597)
ZAP70 (human) = ZAP70 (human) (UniProt P43403)

SMILES: COc1cc(C(=O)N2CCC(N3CCN(C)CC3)CC2)ccc1Nc1ncc2c(n1)N(C)c1ccccc1C(=O)N2C
- kinase still bound, per cent of control (ACVR1B (human)): 100%
- kinase still bound, per cent of control (ADCK4 (human)): 94%
- kinase still bound, per cent of control (AKT2 (human)): 100%
- kinase still bound, per cent of control (BMP2K (human)): 100%
- kinase still bound, per cent of control (BRSK2 (human)): 64%
- kinase still bound, per cent of control (BTK (human)): 100%
- kinase still bound, per cent of control (CaMK1 (human)): 55%
- kinase still bound, per cent of control (DAPK2 (human)): 67%
- kinase still bound, per cent of control (DSTYK (human)): 16%
- kinase still bound, per cent of control (DYRK1A (human)): 99%
- kinase still bound, per cent of control (EIF2AK2 (human)): 84%
- kinase still bound, per cent of control (EPHB6 (human)): 31%
- kinase still bound, per cent of control (FRK (human)): 34%
- kinase still bound, per cent of control (FYN (human)): 100%
- kinase still bound, per cent of control (HIPK1 (human)): 100%
- kinase still bound, per cent of control [1]: 70%
- kinase still bound, per cent of control [2]: 100%
- kinase still bound, per cent of control (MAP3K7 (human)): 98%
- kinase still bound, per cent of control (MAPK14 (human)): 87%
- kinase still bound, per cent of control (MAPKAPK2 (human)): 100%
- residual activity (MYLK (human)): 8.7%
- kinase still bound, per cent of control (NEK11 (human)): 100%
- kinase still bound, per cent of control (NEK3 (human)): 100%
- kinase still bound, per cent of control (NIM1 (human)): 100%
- kinase still bound, per cent of control (PAK7 (human)): 96%
- kinase still bound, per cent of control (PIK3CA (human)): 74%
- kinase still bound, per cent of control [3]: 71%
- kinase still bound, per cent of control (PIP5K1A (human)): 90%
- kinase still bound, per cent of control (PKN2 (human)): 95%
- kinase still bound, per cent of control [4]: 80%
- kinase still bound, per cent of control (RIPK1 (human)): 99%
- kinase still bound, per cent of control (ROCK1 (human)): 100%
- kinase still bound, per cent of control (RPS6KA1 KD1 (human)): 73%
- kinase still bound, per cent of control (RPS6KB1 (human)): 100%
- kinase still bound, per cent of control (SIK2 (human)): 98%
- kinase still bound, per cent of control (SRPK3 (human)): 72%
- kinase still bound, per cent of control (STK16 (human)): 62%
- residual activity (STK39 (human)): 39%
- kinase still bound, per cent of control (TNIK (human)): 100%
- kinase still bound, per cent of control [5]: 52%
- kinase still bound, per cent of control (ZAP70 (human)): 79%
